# Results from publication PMC3062254 (Molecular microbiology, 2011).
# How the values were obtained:
# Experiment in all cases: NADPH/GSH reductase-coupled HED assay, A340
# Assay type in all cases: biochemical
# Details in all cases: read-out: Km (HED); 0.5 mM GSH, 0.2 mM NADPH, yeast GSH reductase, 50 mM sodium phosphate pH 7.5, 50 mM NaCl, 25 °C
# [1] = target: cGrx2 (Clostridium Cys-containing Grx2) (Alkaliphilus oremlandii, UniProt A8MJH2)
# [2] = target: cGrx1 (Clostridium selenoprotein Grx1) (Alkaliphilus oremlandii, UniProt A8MIN3, U13C)
# eGrx1 (E. coli Grx1) = eGrx1 (E. coli Grx1) (Escherichia coli, UniProt P68688)
# Chain of eGrx1 (E. coli Grx1) (P68688 whole entry): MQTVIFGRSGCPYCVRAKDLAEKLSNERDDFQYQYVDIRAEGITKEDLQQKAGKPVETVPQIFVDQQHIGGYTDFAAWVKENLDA
# [3] = target: cGrx2 (Clostridium Cys-containing Grx2) (Alkaliphilus oremlandii, UniProt A8MJH2, C15S)
smiles,measurement,setting,value
OCCSSCCO [hydroxyethyl disulfide],Km,[1],17.6 ± 5.6 mM
same,Km,[2],1.5 ± 0.8 mM
same,Km,eGrx1 (E. coli Grx1),11.2 ± 2.2 mM
same,Km,[3],18.1 ± 4.5 mM
